The values below come from ChEMBL document CHEMBL3797164, “Transfer of SAR information from hypotensive indazole to indole derivatives acting at α-adrenergic receptors: In vitro and in vivo studies” (Eur J Med Chem, 2016).

Molecules are shown by their SMILES.

One assay concerns the target Nischarin (Rattus norvegicus, UniProt Q4G017). Briefly: Displacement of [3H]clonidine from Imidazoline receptor 1 in Sprague-Dawley rat kidney P2 membranes after […] by liquid scintillation counting. A general note: In a radioligand displacement assay an active substance lowers the binding of a labelled ligand.
The subject of assay [1] is Rattus norvegicus. As to the kind of experiment: Antihypertensive activity in anesthetized Wistar rat assessed as change in mean arterial blood pressure at 0.1 mg/kg, iv administered as bolus dose after 5 mins (reference value: 0.4 mmHg). Format: functional.
Assay [2] concerns the target T1, Adrenergic receptor alpha-2 (Rattus norvegicus, UniProt P22086+P19328+P22909).
T1 sequence (P22086 whole entry): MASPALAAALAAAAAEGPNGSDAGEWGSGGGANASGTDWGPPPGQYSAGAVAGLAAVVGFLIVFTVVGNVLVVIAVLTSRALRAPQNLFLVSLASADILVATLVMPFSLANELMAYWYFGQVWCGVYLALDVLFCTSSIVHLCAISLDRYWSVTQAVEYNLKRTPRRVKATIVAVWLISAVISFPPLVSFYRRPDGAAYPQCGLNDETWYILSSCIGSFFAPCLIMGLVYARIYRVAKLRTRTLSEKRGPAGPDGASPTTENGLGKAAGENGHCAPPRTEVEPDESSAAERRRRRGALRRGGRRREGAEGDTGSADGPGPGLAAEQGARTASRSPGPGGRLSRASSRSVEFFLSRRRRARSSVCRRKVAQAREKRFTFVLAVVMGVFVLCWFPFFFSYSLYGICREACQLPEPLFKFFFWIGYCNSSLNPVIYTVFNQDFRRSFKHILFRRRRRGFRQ
T1 sequence (P19328 whole entry): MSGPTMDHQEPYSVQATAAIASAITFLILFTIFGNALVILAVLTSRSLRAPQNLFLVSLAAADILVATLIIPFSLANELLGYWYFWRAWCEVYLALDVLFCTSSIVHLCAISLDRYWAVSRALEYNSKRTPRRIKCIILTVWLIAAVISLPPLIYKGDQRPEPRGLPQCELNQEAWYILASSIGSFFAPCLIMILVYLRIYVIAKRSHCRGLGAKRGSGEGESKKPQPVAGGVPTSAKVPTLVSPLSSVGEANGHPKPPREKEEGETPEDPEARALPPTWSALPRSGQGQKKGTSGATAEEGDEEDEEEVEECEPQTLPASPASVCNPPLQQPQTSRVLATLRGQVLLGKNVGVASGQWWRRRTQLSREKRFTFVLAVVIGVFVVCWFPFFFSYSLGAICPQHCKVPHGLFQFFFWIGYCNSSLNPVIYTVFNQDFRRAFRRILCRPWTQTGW
T1 sequence (P22909 whole entry): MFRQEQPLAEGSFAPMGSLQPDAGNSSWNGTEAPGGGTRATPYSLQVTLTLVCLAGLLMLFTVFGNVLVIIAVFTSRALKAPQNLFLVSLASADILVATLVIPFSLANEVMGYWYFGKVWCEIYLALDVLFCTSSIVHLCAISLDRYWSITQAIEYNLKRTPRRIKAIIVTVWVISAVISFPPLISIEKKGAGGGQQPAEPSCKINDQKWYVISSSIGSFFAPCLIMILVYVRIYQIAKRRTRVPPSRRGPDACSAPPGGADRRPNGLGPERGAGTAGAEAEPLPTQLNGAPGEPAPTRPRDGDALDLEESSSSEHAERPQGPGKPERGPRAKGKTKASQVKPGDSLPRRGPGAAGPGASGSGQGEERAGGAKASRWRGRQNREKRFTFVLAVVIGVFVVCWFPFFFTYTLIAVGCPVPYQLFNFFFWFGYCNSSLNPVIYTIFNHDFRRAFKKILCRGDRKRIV
Briefly: Displacement of [3H]RX821002 from Alpha-2 adrenergic receptor in Sprague-Dawley rat brain P2 membranes after […] by liquid scintillation counting.

The test system of assay [3] is Rattus norvegicus. As to the kind of experiment: Antihypertensive activity in anesthetized Wistar rat assessed as change in heart rate at 0.1 mg/kg, iv administered as bolus dose after 2 mins (reference value: -0.6 […]). It counts as functional.
Assay [4] relates to Rattus norvegicus. Briefly: Antihypertensive activity in anesthetized Wistar rat assessed as change in mean arterial blood pressure at 0.1 mg/kg, iv administered as bolus dose after 2 mins. It counts as functional.
The test system of assay [5] is Rattus norvegicus. Briefly: Antihypertensive activity in anesthetized Wistar rat assessed as change in mean arterial blood pressure at 0.1 mg/kg, iv administered as bolus dose after 60 mins (reference value: -3.5 mmHg). Format: functional.
The test system of assay [6] is Rattus norvegicus. Briefly: Antihypertensive activity in anesthetized Wistar rat assessed as change in mean arterial blood pressure at 0.1 mg/kg, iv administered as bolus dose after 30 mins (reference value: -1.3 mmHg). Format: functional.

One may read the Ki as the equilibrium dissociation constant of an inhibitor or competing ligand from its target. A high value points to a looser hold on the target.

Sequence of Nischarin (Q4G017 whole entry): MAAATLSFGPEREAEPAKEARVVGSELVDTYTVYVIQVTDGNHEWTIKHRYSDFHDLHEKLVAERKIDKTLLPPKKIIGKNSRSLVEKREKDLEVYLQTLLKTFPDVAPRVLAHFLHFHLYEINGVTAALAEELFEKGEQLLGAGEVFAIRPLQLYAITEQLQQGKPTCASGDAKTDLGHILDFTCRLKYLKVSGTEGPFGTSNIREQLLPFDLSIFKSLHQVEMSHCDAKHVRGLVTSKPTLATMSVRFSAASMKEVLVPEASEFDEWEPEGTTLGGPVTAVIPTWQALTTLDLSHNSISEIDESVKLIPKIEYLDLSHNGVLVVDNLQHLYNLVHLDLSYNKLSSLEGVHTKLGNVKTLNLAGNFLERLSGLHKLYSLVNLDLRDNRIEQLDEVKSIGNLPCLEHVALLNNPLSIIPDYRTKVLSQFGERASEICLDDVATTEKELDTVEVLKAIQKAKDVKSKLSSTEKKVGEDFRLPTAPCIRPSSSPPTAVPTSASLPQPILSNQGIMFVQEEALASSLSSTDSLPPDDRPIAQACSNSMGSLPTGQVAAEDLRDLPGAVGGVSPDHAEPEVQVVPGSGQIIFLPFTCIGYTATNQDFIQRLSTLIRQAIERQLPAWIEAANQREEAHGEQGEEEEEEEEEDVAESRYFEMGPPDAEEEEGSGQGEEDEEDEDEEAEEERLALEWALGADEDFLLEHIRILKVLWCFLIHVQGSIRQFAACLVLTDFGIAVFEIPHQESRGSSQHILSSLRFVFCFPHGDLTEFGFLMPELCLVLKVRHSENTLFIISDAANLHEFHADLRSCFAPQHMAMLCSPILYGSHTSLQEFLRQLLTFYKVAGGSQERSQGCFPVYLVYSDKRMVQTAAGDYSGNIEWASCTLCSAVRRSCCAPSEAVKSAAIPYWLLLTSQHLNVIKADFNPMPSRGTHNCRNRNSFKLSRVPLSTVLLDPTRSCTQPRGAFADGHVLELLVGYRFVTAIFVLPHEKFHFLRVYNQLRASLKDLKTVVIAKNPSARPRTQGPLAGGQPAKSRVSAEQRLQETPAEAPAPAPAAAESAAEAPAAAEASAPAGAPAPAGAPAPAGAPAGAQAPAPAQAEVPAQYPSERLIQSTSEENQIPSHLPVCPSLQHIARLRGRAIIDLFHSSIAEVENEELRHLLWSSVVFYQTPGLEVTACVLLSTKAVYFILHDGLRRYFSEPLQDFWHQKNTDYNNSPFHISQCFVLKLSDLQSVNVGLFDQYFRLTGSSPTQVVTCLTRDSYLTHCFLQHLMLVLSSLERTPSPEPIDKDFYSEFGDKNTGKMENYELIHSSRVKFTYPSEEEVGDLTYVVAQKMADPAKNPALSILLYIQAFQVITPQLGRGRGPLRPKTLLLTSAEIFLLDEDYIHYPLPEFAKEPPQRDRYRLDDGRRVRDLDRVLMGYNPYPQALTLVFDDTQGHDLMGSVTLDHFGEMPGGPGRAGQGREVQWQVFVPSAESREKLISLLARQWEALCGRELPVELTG

Take `Cl.Clc1cccc2ccn(CC3=NCCN3)c12`: the figures for the Ki (at Nischarin; in assay [2]) were 10.3 µM and 0.00634 µM, respectively. Also, the Activity is given as 7.4 mmHg in the assay with Rattus norvegicus [1]; -89.6 bpm in the assay with Rattus norvegicus [3]; 15.2 mmHg in the assay on Rattus norvegicus [4]; -61.2 mmHg in the assay with Rattus norvegicus [5]; -56.1 mmHg in the assay with Rattus norvegicus [6].
Turning to `Br.Cc1cccc2ccn(CC3=NCCN3)c12`, the results for the Ki (on Nischarin; in assay [2]) were 1 µM and 0.01663 µM, respectively. Further, the Activity was -4.2 mmHg with Rattus norvegicus [1]; -61.3 bpm in the assay with Rattus norvegicus [3]; 13.4 mmHg in the assay on Rattus norvegicus [4]; -40.9 mmHg with Rattus norvegicus [5]; -46.5 mmHg in the assay on Rattus norvegicus [6].
`Cl.c1ccc2c(c1)ccn2CC1=NCCN1`: the inhibitory constant (Ki) came to 81.4 µM on Nischarin and 0.0335 µM in assay [2]. Besides, the Activity with Rattus norvegicus [1] was 33.7 mmHg; with Rattus norvegicus [3], -138.4 bpm; in the assay on Rattus norvegicus [4], 34.1 mmHg; with Rattus norvegicus [5], -38.5 mmHg; in the assay with Rattus norvegicus [6] it was -27.9 mmHg.
